Measurements from PMC12188386, “Selective CBP/EP300 Bromodomain Inhibitors: Novel Epigenetic Tools to Counter TNF-α-Driven Inflammation” (JACS Au, 2025).
In brackets after ≈: the same amount, converted by molar mass.

Key:
[1] = tested on: myc expression in LP1 cells; assay: myc mRNA expression by RT-qPCR; type: cell-based; settings: 4 h treatment of LP1 cells with 1 μM compound
Procedure: For myc expression, 1x10^6 LP1 cells were plated the day prior to a 4 h treatment with compounds at a final DMSO concentration of 0.1 %. […]
In all cases, total
RNA was extracted using the NucleoSpin® RNA kit (Machery -Nagel) and used for cDNA synthesis with the High -Capacity cDNA Reverse Transcription kit (Applied Biosystems). RT-qPCR reactions were performed using PowerSYBR™ green PCR Master Mix (Applied Biosystems) and a LightCycler® 480 (Roche). cDNA was denatured for 10 min at 95 °C followed by 40 cycles of 15 s at 95 °C and 1 min at 60 °C. Cp values were determined as the maximum of the second derivative and target gene expression was compared to that of hprt from the same sample using the 2-ΔCp method. Gene expression was then normalized to the average of the control samples from the same day, or all biological replicates. […]

[2] = kinetic solubility; type: physicochemical; settings: PBS buffer, aqueous buffer, kinetic from dmso stock, PBS pH 7.4, 37°C, ± st. dev. between technical replicates, read-out: Kin. Sol.
Procedure: Starting from an initial concentration of 100, 50 or 20 µM, a 2-fold serial dilution of the compound (10 mM stock in DMSO) was prepared in a mixture of ACN/Buffer (PBS, pH = 7.4) 2:8, with 1% DMSO. 350 µL was transferred to a 96-Well Plate (Greiner, UV-star) then UV absorption (240-400 nm, 10 nm steps) was measured. The absorption was blank-corrected and plotted against concentration. The wavelength (λ) providing the best fitting straight line […]
was used as the calibration curve. To obtain saturated solutions of the compounds of interest, in duplicates 4.4 µL of a 10 or 5 mM stock in DMSO was added to 436 µL Buffer (PBS, pH = 7.4), to give a final concentration of 100 or 50 µM. Samples were incubated on a shaker (500 rpm) at 37°C for 90 minutes and then filtered (Millex-GV 13 mm, 0.22 µm). 304 µL of the filtrate was mixed with 76 µL of acetonitrile on a dilution plate, from which 350 µL was transferred to a UV-plate and UV-absorption was read using a SpectraMax M5 (Molecular devices). The absorbance was blank-corrected and compared to the calibration curve to […]
solubility. The wavelengths used for the calibration curve are available in Table S4.
Based on the known density of 12.5 % CAPTISOL® solution (d = 1.05755 g/mL at 25 °C), the precise weight of the resulting solution and so the required amount of water by weight was calculated. The water was added portion wise with agitation, vortexing and sonication cycles in between additions. The saturated solutions were then filtered (Millex-GV 13 mm, 0.22 µm). In duplicates, aliquots of the filtrates were taken and diluted with blank 12.5 % CAPTISOL® water solution in either a 1:14 (higher sol. compounds) or 1:7 (lower sol. compounds) ratio, 350 µL was transferred to a 96-Well Plate (Greiner, UV-star) then UV absorption (240-400 nm, 10 nm steps) was measured using a SpectraMax M5 (Molecular devices). The absorption was blank-corrected, compared to the calibration curve obtained during the solubility measurement method above and finally corrected for the dilution ratio to obtain the compound concentration in the saturated 12.5 % CAPTISOL® solution. The calculated concentrations are available in Table S4.
BROMOscan™ assays (provided by Eurofins DiscoverX, US)1,2 […]
coli host derived from the BL21 strain. E. coli were grown to log-phase and infected with T7 phage from a frozen stock (multiplicity of infection = 0.4) and incubated with shaking at 32°C until lysis (90-150 minutes). The lysates were centrifuged (5,000 x g) and filtered (0.2µm) to remove cell debris. Streptavidin-coated magnetic beads were treated with biotinylated small molecule or acetylated peptide ligands for 30 minutes at room temperature to generate affinity resins for bromodomain assays. The liganded beads were blocked with excess biotin and washed with blocking buffer (SeaBlock (Pierce), 1 % BSA, 0.05 % Tween 20, 1 mM DTT) to remove unbound ligand and to reduce non specific phage binding. Binding reactions were assembled by combining bromodomains, liganded affinity beads, and test compounds (see […]
Sodium azide, 7.4 mM DTT). All reactions were performed in polypropylene 384-well plates in a final volume of 0.02 mL. The assay plates were incubated at room temperature with […]
20). The beads were then resuspended in elution buffer (1x PBS, 0.05% Tween 20, 2 µM non-

[3] = molecular target: T1, CBP-BRD (ePL-CBP-BRD in HEK293T cells) (Homo sapiens, UniProt Q92793); assay: CBP-BRD InCELL Pulse cellular target engagement; type: cell-based; settings: 1 h compound treatment of HEK293T cells transiently transfected with ePL-CBP-BRD
T1 construct: (residues 1083-1197) was cloned into the pICP-ePL-C vector; expressed in transfected cells; host or cells: HEK293T, transient transfection (vector pICP-ePL-C, DiscoverX 94-4007S)
Procedure: The CBP-BRD (residues 1083-1197) was cloned into the pICP-ePL-C vector (DiscoverX, 94-4007S) between the EcoRI and XhoI restriction sites using the hexahistidine-CREBBP plasmid as a template. 5x10^5 HEK293T cells were plated on a 6 well plate the day prior to transfection with 1.5 μg ePL-CBP-BRD plasmid using 5 μl FugeneHD (Promega E2311) in 500 μl optiMEM® (Gibco, 31985062) . Proteins were allowed to express for 20 h before cells were trypsinized, washed and resuspended in low -serum medium (DMEM with 5 % FBS). Compounds were serially diluted in DMSO at 100x, pre-diluted to 5x in complete medium (DMEM with 10 % FBS and 1 % P/S), then added to a suspension of 5x10^3 cells, giving a final DMSO concentration of 1 %. Treated cells were incubated for 1 h at 37 °C in an incubator, followed by a heat shock for 3 min at 45 °C and recovery for 3 min at 22 °C using a thermocycler with a ramp rate of 1 °C/s (SimpliAmp, Thermo Fisher). Stab ilized ePL tag was quantified using the InCELL detecti n Kit isc verX as per the manufacturer’s pr t c usin the -10 working detection solution and a 2 h incubation before reading luminescence with a SpectraMax M5 plate reader (Molecular devices). […]

T1 sequence (Q92793 1083-1197): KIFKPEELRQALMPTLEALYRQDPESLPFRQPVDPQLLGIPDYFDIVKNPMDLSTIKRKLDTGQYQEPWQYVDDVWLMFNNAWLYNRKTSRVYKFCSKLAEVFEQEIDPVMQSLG

Structure (SMILES)	myc mRNA expression [1]	solubility kinetic at 90 min [2]	cellular binding to CBP-BRD (InCELL Pulse) [3]
CC(=O)Nc1cc(NC(=O)c2ccco2)cc(C(=O)Nc2cccc3nnc(C)cc23)c1 [Compound 1]	not observed	22.2 ± 1.3 µM (≈ 9.53 µg/mL)	no ligand engagement in cellulo
Cc1cc2c(NC(=O)c3cc(NC(=O)c4ccco4)cc(-c4ccn(C)n4)c3)cccc2nn1 [Compound 2]	significantly decrease myc expression levels	3.2 ± 1.3 µM (≈ 1.45 µg/mL)	significant improvement in terms of cellular target engagement
Cc1cc2c(NC(=O)c3cc(NC(=O)[C@H]4CCCO4)cc(-c4ccn(C)n4)c3)cccc2nn1 [Compound 5]	significantly decreased the expression level of myc	69.7 ± 0.6 µM (≈ 31.8 µg/mL)	able to engage the target very similarly
